Assay results from ChEMBL document CHEMBL1201862, “PubChem BioAssay data set” (2004).
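Dose response: 5 concentrations. Exposure: 48 h. Format: 96-well plates. Endpoint: linear interpolation; highest concentration if not reached. The concentration for 50% growth inhibition is given as GI50.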 Active and inactive are the calls of the source. No stated cut-off is given here; in the data, active = GI50 up to about 1.1 µM and inactive = higher.

How the values were obtained:
Assay in all cases: inhibition of tumour cell growth, NCI panel, 48 h
CAKI-1 = tested on: CAKI-1
CCRF-CEM = tested on: CCRF-CEM
EKVX = tested on: EKVX
HCT-116 = tested on: HCT-116
HCT-15 = tested on: HCT-15
HOP-62 = tested on: HOP-62
HOP-92 = tested on: HOP-92
LOX IMVI = tested on: LOX IMVI
Malme-3M = tested on: Malme-3M
NCI-H460 = tested on: NCI-H460
OVCAR-3 = tested on: OVCAR-3
OVCAR-5 = tested on: OVCAR-5
OVCAR-8 = tested on: OVCAR-8
PC-3 = tested on: PC-3
SF-268 = tested on: SF-268
SK-MEL-2 = tested on: SK-MEL-2
SK-MEL-5 = tested on: SK-MEL-5
SNB-75 = tested on: SNB-75
UACC-62 = tested on: UACC-62
SF-539 = tested on: SF-539

**Q.** How did the GI50 (CAKI-1) turn out when `CCSCC(N)C(=O)O` (configuration not stated) was run?
**A.** > 100 µM (inactive)

**Q.** What about the GI50 (CCRF-CEM) of the same compound?
**A.** > 100 µM (inactive)

**Q.** What about the GI50 (EKVX) of the same compound?
**A.** > 100 µM (inactive)

**Q.** And the GI50 (HCT-116)?
**A.** > 100 µM (inactive)

**Q.** What about the GI50 (HCT-15) of the same compound?
**A.** > 100 µM

**Q.** What about the GI50 (HOP-62) of the same compound?
**A.** > 100 µM (inactive)

**Q.** And the GI50 (HOP-92)?
**A.** 0.0337 µM (active)

**Q.** What about the GI50 (LOX IMVI) of the same compound?
**A.** > 100 µM (inactive)

**Q.** And the GI50 (Malme-3M)?
**A.** > 100 µM (inactive)

**Q.** What about the GI50 (NCI-H460) of the same compound?
**A.** > 100 µM (inactive)

**Q.** What about the GI50 (OVCAR-3) of the same compound?
**A.** > 100 µM (inactive)

**Q.** What about the GI50 (OVCAR-5) of the same compound?
**A.** > 100 µM (inactive)

**Q.** What about the GI50 (OVCAR-8) of the same compound?
**A.** > 100 µM (inactive)

**Q.** And the GI50 (PC-3)?
**A.** > 100 µM (inactive)

**Q.** And the GI50 (SF-268)?
**A.** > 100 µM (inactive)

**Q.** And the GI50 (SK-MEL-2)?
**A.** > 100 µM (inactive)

**Q.** And the GI50 (SK-MEL-5)?
**A.** > 100 µM (inactive)

**Q.** And the GI50 (SNB-75)?
**A.** > 100 µM (inactive)

**Q.** What about the GI50 (UACC-62) of the same compound?
**A.** > 100 µM (inactive)

**Q.** Which results are given for `O=c1[nH]c(=O)n(CCOc2ccc(Cl)cc2)cc1Nc1ccccc1`?
**A.** GI50 (CAKI-1): > 100 µM (inactive); GI50 (CCRF-CEM): > 100 µM (inactive); GI50 (EKVX): 71 µM (inactive); GI50 (HCT-116): > 100 µM (inactive); GI50 (HCT-15): > 100 µM; GI50 (HOP-62): > 100 µM (inactive); GI50 (HOP-92): > 100 µM (inactive); GI50 (LOX IMVI): > 100 µM (inactive); GI50 (NCI-H460): > 100 µM (inactive); GI50 (OVCAR-3): 85.3 µM (inactive); GI50 (OVCAR-5): > 100 µM (inactive); GI50 (PC-3): > 100 µM (inactive); GI50 (SF-268): 39.9 µM (inactive); GI50 (SK-MEL-5): > 100 µM (inactive); GI50 (UACC-62): > 100 µM (inactive)

**Q.** What does the source list for `Cc1nc(-c2ccc(/N=C/c3ccc(N(CCOS(C)(=O)=O)CCOS(C)(=O)=O)cc3C)cc2)cs1`?
**A.** GI50 (CCRF-CEM): 3.65 µM (inactive); GI50 (HCT-116): 34.8 µM (inactive); GI50 (HCT-15): 77.6 µM; GI50 (HOP-62): 35.1 µM (inactive); GI50 (LOX IMVI): 19.4 µM (inactive); GI50 (Malme-3M): 28.9 µM (inactive); GI50 (NCI-H460): 9.46 µM (inactive); GI50 (OVCAR-3): 30.8 µM (inactive); GI50 (OVCAR-5): 30.8 µM (inactive); GI50 (OVCAR-8): 51.9 µM (inactive); GI50 (PC-3): 20.9 µM (inactive); GI50 (SF-268): 5.14 µM (inactive); GI50 (SF-539): 3.04 µM (inactive); GI50 (SK-MEL-2): > 100 µM (inactive); GI50 (SK-MEL-5): 11.4 µM (inactive); GI50 (SNB-75): 40.9 µM (inactive); GI50 (UACC-62): 9.59 µM (inactive)

**Q.** How did the GI50 (CAKI-1) turn out when `C=C(C)C(=O)N1c2ccc(OC)cc2CC1C(=O)OCC` (configuration not stated) was run?
**A.** > 100 µM (inactive)

**Q.** What about the GI50 (CCRF-CEM) of the same compound?
**A.** > 100 µM (inactive)

**Q.** What about the GI50 (EKVX) of the same compound?
**A.** > 100 µM (inactive)

**Q.** And the GI50 (HCT-116)?
**A.** > 100 µM (inactive)

**Q.** And the GI50 (HCT-15)?
**A.** > 100 µM

**Q.** And the GI50 (HOP-62)?
**A.** > 100 µM (inactive)

**Q.** What about the GI50 (NCI-H460) of the same compound?
**A.** > 100 µM (inactive)

**Q.** What about the GI50 (OVCAR-3) of the same compound?
**A.** > 100 µM (inactive)

**Q.** What about the GI50 (OVCAR-5) of the same compound?
**A.** > 100 µM (inactive)

**Q.** What about the GI50 (OVCAR-8) of the same compound?
**A.** > 100 µM (inactive)

**Q.** What about the GI50 (PC-3) of the same compound?
**A.** > 100 µM (inactive)

**Q.** And the GI50 (SF-268)?
**A.** > 100 µM (inactive)

**Q.** What about the GI50 (SF-539) of the same compound?
**A.** > 100 µM (inactive)

**Q.** And the GI50 (SK-MEL-2)?
**A.** > 100 µM (inactive)

**Q.** And the GI50 (SK-MEL-5)?
**A.** > 100 µM (inactive)

**Q.** What about the GI50 (SNB-75) of the same compound?
**A.** 45.2 µM (inactive)

**Q.** And the GI50 (UACC-62)?
**A.** > 100 µM (inactive)

**Q.** `CN/C(N)=N/N=C1/C(=O)Nc2ccccc21` was tested. Which GI50 (CAKI-1) did it give?
**A.** > 100 µM (inactive)

**Q.** And the GI50 (CCRF-CEM)?
**A.** > 100 µM (inactive)

**Q.** What about the GI50 (EKVX) of the same compound?
**A.** > 100 µM (inactive)

**Q.** And the GI50 (HCT-116)?
**A.** > 100 µM (inactive)

**Q.** What about the GI50 (HCT-15) of the same compound?
**A.** > 100 µM

**Q.** And the GI50 (HOP-62)?
**A.** > 100 µM (inactive)

**Q.** What about the GI50 (HOP-92) of the same compound?
**A.** > 100 µM (inactive)

**Q.** What about the GI50 (LOX IMVI) of the same compound?
**A.** > 100 µM (inactive)

**Q.** And the GI50 (Malme-3M)?
**A.** > 100 µM (inactive)

**Q.** And the GI50 (NCI-H460)?
**A.** > 100 µM (inactive)

**Q.** What about the GI50 (OVCAR-5) of the same compound?
**A.** > 100 µM (inactive)

**Q.** What about the GI50 (OVCAR-8) of the same compound?
**A.** > 100 µM (inactive)

**Q.** What about the GI50 (PC-3) of the same compound?
**A.** > 100 µM (inactive)

**Q.** What about the GI50 (SF-268) of the same compound?
**A.** > 100 µM (inactive)

**Q.** What about the GI50 (SK-MEL-2) of the same compound?
**A.** > 100 µM (inactive)

**Q.** And the GI50 (SK-MEL-5)?
**A.** > 100 µM (inactive)

**Q.** And the GI50 (SNB-75)?
**A.** > 100 µM (inactive)

**Q.** What about the GI50 (UACC-62) of the same compound?
**A.** > 100 µM (inactive)

**Q.** With `O[C@@H]1C[C@H](Cl)c2c(Cl)sc(Cl)c21` as the compound, how does the GI50 (CAKI-1) read?
**A.** > 100 µM (inactive)

**Q.** What about the GI50 (CCRF-CEM) of the same compound?
**A.** > 100 µM (inactive)

**Q.** What about the GI50 (EKVX) of the same compound?
**A.** > 100 µM (inactive)

**Q.** What about the GI50 (HCT-116) of the same compound?
**A.** > 100 µM (inactive)

**Q.** And the GI50 (HCT-15)?
**A.** > 100 µM

**Q.** And the GI50 (HOP-62)?
**A.** > 100 µM (inactive)

**Q.** And the GI50 (LOX IMVI)?
**A.** > 100 µM (inactive)

**Q.** What about the GI50 (Malme-3M) of the same compound?
**A.** > 100 µM (inactive)

**Q.** What about the GI50 (NCI-H460) of the same compound?
**A.** > 100 µM (inactive)

**Q.** And the GI50 (OVCAR-3)?
**A.** > 100 µM (inactive)

**Q.** And the GI50 (OVCAR-5)?
**A.** > 100 µM (inactive)

**Q.** And the GI50 (OVCAR-8)?
**A.** > 100 µM (inactive)

**Q.** What about the GI50 (PC-3) of the same compound?
**A.** > 100 µM (inactive)

**Q.** And the GI50 (SF-268)?
**A.** > 100 µM (inactive)

**Q.** And the GI50 (SF-539)?
**A.** > 100 µM (inactive)

**Q.** And the GI50 (SK-MEL-2)?
**A.** > 100 µM (inactive)

**Q.** What about the GI50 (SK-MEL-5) of the same compound?
**A.** > 100 µM (inactive)

**Q.** And the GI50 (SNB-75)?
**A.** > 100 µM (inactive)

**Q.** What about the GI50 (UACC-62) of the same compound?
**A.** > 100 µM (inactive)

**Q.** Which results are given for `N=C(N)C(/N=N\c1ccccc1)C(N)=O` (configuration not stated)?
**A.** GI50 (CAKI-1): 64.7 µM (inactive); GI50 (EKVX): 95.7 µM (inactive); GI50 (HCT-116): > 100 µM (inactive); GI50 (HCT-15): 83.8 µM; GI50 (HOP-62): > 100 µM (inactive); GI50 (HOP-92): > 100 µM (inactive); GI50 (LOX IMVI): 83 µM (inactive); GI50 (Malme-3M): > 100 µM (inactive); GI50 (NCI-H460): > 100 µM (inactive); GI50 (OVCAR-3): > 100 µM (inactive); GI50 (OVCAR-5): > 100 µM (inactive); GI50 (OVCAR-8): > 100 µM (inactive); GI50 (PC-3): > 100 µM (inactive); GI50 (SF-268): > 100 µM (inactive); GI50 (SK-MEL-2): 66.1 µM (inactive); GI50 (SK-MEL-5): > 100 µM (inactive); GI50 (SNB-75): > 100 µM (inactive); GI50 (UACC-62): 43.3 µM (inactive)

**Q.** How did the GI50 (CAKI-1) turn out when `CCC/C(Cl)=N\OC(=O)Nc1cccc(C(F)(F)F)c1` was run?
**A.** 18.1 µM (inactive)

**Q.** What about the GI50 (CCRF-CEM) of the same compound?
**A.** 2.43 µM (inactive)

**Q.** What about the GI50 (EKVX) of the same compound?
**A.** 16.6 µM (inactive)

**Q.** And the GI50 (HCT-116)?
**A.** 18.2 µM (inactive)

**Q.** And the GI50 (HCT-15)?
**A.** 13.5 µM

**Q.** And the GI50 (HOP-62)?
**A.** > 100 µM (inactive)

**Q.** What about the GI50 (LOX IMVI) of the same compound?
**A.** 6.84 µM (inactive)

**Q.** And the GI50 (Malme-3M)?
**A.** 13.2 µM (inactive)

**Q.** What about the GI50 (NCI-H460) of the same compound?
**A.** 19.4 µM (inactive)

**Q.** And the GI50 (OVCAR-3)?
**A.** 22.4 µM (inactive)

**Q.** And the GI50 (OVCAR-5)?
**A.** 20.3 µM (inactive)

**Q.** And the GI50 (OVCAR-8)?
**A.** 17.9 µM (inactive)

**Q.** And the GI50 (PC-3)?
**A.** 17.6 µM (inactive)

**Q.** What about the GI50 (SF-268) of the same compound?
**A.** 27.3 µM (inactive)

**Q.** And the GI50 (SF-539)?
**A.** 18.7 µM (inactive)

**Q.** And the GI50 (SK-MEL-2)?
**A.** 16.7 µM (inactive)

**Q.** What about the GI50 (SK-MEL-5) of the same compound?
**A.** 15.5 µM (inactive)

**Q.** And the GI50 (SNB-75)?
**A.** 10.4 µM (inactive)

**Q.** And the GI50 (UACC-62)?
**A.** 18.9 µM (inactive)
